Where “and” joins values, the source holds several entries; their conditions need not be identical. Identical values can stand only once.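 Dose response: 5 concentrations. Exposure: 48 h. Format: 96-well plates. Endpoint: linear interpolation; highest concentration if not reached. GI50 is the concentration that inhibits growth by half. The concentration for full growth arrest is given as TGI.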
Key:
Test in all cases: inhibition of tumour cell growth, NCI panel, 48 h
IGROV1 ovarian = tested on: IGROV1 ovarian
K-562 leukemia = tested on: K-562 leukemia
OVCAR-8 ovarian = tested on: OVCAR-8 ovarian
RPMI-8226 leukemia = tested on: RPMI-8226 leukemia
SK-MEL-5 melanoma = tested on: SK-MEL-5 melanoma
SK-OV-3 ovarian = tested on: SK-OV-3 ovarian
SN12C renal = tested on: SN12C renal
SNB-75 CNS = tested on: SNB-75 CNS
SR leukemia = tested on: SR leukemia
UACC-62 melanoma = tested on: UACC-62 melanoma

CCCCCCCC/C=C1\CCC(CN2CCOCC2)C1=O (stereo unspecified)
TGI (IGROV1 ovarian): 21 µM
TGI (K-562 leukemia): 8.68 µM
TGI (OVCAR-8 ovarian): 13.8 µM
TGI (RPMI-8226 leukemia): 4.19 µM
TGI (SK-MEL-5 melanoma): 23.2 µM
TGI (SK-OV-3 ovarian): 34.3 µM
TGI (SN12C renal): 12.5 µM
TGI (SNB-75 CNS): 23.5 µM
TGI (SR leukemia): 5.3 µM
TGI (UACC-62 melanoma): 12.6 µM

COc1ccc(/C(C#N)=C/c2cc(OC)c(OC)c(OC)c2)cc1
GI50 (IGROV1 ovarian): 29200 nM
TGI (IGROV1 ovarian): > 100 µM
GI50 (K-562 leukemia): 4640 nM
TGI (K-562 leukemia): 31.3 µM
GI50 (OVCAR-8 ovarian): 30700 nM
TGI (OVCAR-8 ovarian): > 100 µM
GI50 (RPMI-8226 leukemia): 16.6 µM
TGI (RPMI-8226 leukemia): 56.1 µM
GI50 (SK-MEL-5 melanoma): 10.7 µM
TGI (SK-MEL-5 melanoma): 28.7 µM
GI50 (SK-OV-3 ovarian): 35.8 µM
TGI (SK-OV-3 ovarian): > 100 µM
GI50 (SN12C renal): 27200 nM
TGI (SN12C renal): > 100 µM
GI50 (SNB-75 CNS): 11.6 µM
TGI (SNB-75 CNS): 87.7 µM
GI50 (SR leukemia): 3360 nM
TGI (SR leukemia): 41.5 µM
GI50 (UACC-62 melanoma): 14100 nM
TGI (UACC-62 melanoma): > 100 µM

CC(C)c1cccc(O)c(=O)c1
GI50 (IGROV1 ovarian): 1.6 µg/mL
TGI (IGROV1 ovarian): > 75 µg/mL and > 100 µM
GI50 (K-562 leukemia): 2.38 µg/mL
GI50 (OVCAR-8 ovarian): 2 µg/mL
GI50 (RPMI-8226 leukemia): 0.826 µg/mL
GI50 (SK-MEL-5 melanoma): 1.35 µg/mL
TGI (SK-OV-3 ovarian): > 100 µM
GI50 (SN12C renal): 4.26 µg/mL
TGI (SN12C renal): > 75 µg/mL and > 100 µM
TGI (SNB-75 CNS): > 92.6 µM
GI50 (SR leukemia): 0.496 µg/mL
GI50 (UACC-62 melanoma): 4.17 µg/mL
TGI (UACC-62 melanoma): 28.6 µg/mL and > 41.3 µM

O=c1oc2cc(OC/C(=N/O)c3ccc(F)cc3)ccc2c2ccccc12
GI50 (IGROV1 ovarian): 23600 nM
TGI (IGROV1 ovarian): 42 µM
GI50 (K-562 leukemia): 20100 nM
TGI (K-562 leukemia): 46.3 µM
GI50 (OVCAR-8 ovarian): 22500 nM
TGI (OVCAR-8 ovarian): 43.6 µM
GI50 (RPMI-8226 leukemia): 31.8 µM
TGI (RPMI-8226 leukemia): > 100 µM
GI50 (SK-MEL-5 melanoma): 20.9 µM
TGI (SK-MEL-5 melanoma): 36.3 µM
GI50 (SK-OV-3 ovarian): 24 µM
TGI (SK-OV-3 ovarian): 41.3 µM
GI50 (SN12C renal): 20100 nM
TGI (SN12C renal): 37.3 µM
GI50 (SNB-75 CNS): 23.7 µM
TGI (SNB-75 CNS): 43.9 µM
GI50 (SR leukemia): 26600 nM
TGI (SR leukemia): 69.2 µM
GI50 (UACC-62 melanoma): 17600 nM
TGI (UACC-62 melanoma): 33 µM

C=C1C(=O)O[C@H]2[C@H]1CC/C(Cn1cc(-c3ccc(F)cc3)nn1)=C\CC[C@@]1(C)O[C@@H]21
GI50 (IGROV1 ovarian): 1170 nM
TGI (IGROV1 ovarian): 2.64 µM
GI50 (K-562 leukemia): 948 nM
TGI (K-562 leukemia): 4.84 µM
GI50 (OVCAR-8 ovarian): 1660 nM
TGI (OVCAR-8 ovarian): 3.85 µM
GI50 (RPMI-8226 leukemia): 1.41 µM
TGI (RPMI-8226 leukemia): 4.92 µM
GI50 (SK-MEL-5 melanoma): 1.74 µM
TGI (SK-MEL-5 melanoma): 3.12 µM
GI50 (SK-OV-3 ovarian): 9.78 µM
TGI (SK-OV-3 ovarian): 21.4 µM
GI50 (SN12C renal): 1640 nM
TGI (SN12C renal): 3.79 µM
GI50 (SNB-75 CNS): 1.25 µM
TGI (SNB-75 CNS): 2.5 µM
GI50 (SR leukemia): 251 nM
TGI (SR leukemia): 1.18 µM
GI50 (UACC-62 melanoma): 1260 nM
TGI (UACC-62 melanoma): 2.65 µM

CCOC(=O)C12C(C(=O)OC)=C(C)N(NC(=O)Nc3ccccc3)C1(N)N(NC(=O)Nc1ccccc1)C(C)=C2C(=O)OC (stereo unspecified)
TGI (IGROV1 ovarian): > 100 µM
TGI (K-562 leukemia): > 73.5 µM
TGI (OVCAR-8 ovarian): > 100 µM
TGI (RPMI-8226 leukemia): 74 µM
TGI (SK-MEL-5 melanoma): 39.3 µM
TGI (SK-OV-3 ovarian): > 100 µM
TGI (SN12C renal): > 100 µM
TGI (SNB-75 CNS): > 100 µM
TGI (SR leukemia): 59.1 µM
TGI (UACC-62 melanoma): 34.5 µM

NCCNC(=O)c1cccc2cc3ccccc3nc12
TGI (IGROV1 ovarian): > 28.6 µM
TGI (K-562 leukemia): 6.16 µM
TGI (OVCAR-8 ovarian): > 22.2 µM
TGI (RPMI-8226 leukemia): > 100 µM
TGI (SK-MEL-5 melanoma): > 23.2 µM
TGI (SK-OV-3 ovarian): > 39 µM
TGI (SN12C renal): 20.8 µM
TGI (SNB-75 CNS): 27.7 µM
TGI (SR leukemia): 53.8 µM
TGI (UACC-62 melanoma): 8.34 µM

O=C(/C=C1\C(=O)N(Cc2ccccc2)c2ccccc21)c1ccc(OCCN2CCCCC2)cc1
GI50 (IGROV1 ovarian): 1760 nM
TGI (IGROV1 ovarian): 3.55 µM
GI50 (K-562 leukemia): 1840 nM
TGI (K-562 leukemia): 6.53 µM
GI50 (OVCAR-8 ovarian): 2130 nM
TGI (OVCAR-8 ovarian): 4.16 µM
GI50 (RPMI-8226 leukemia): 2.07 µM
TGI (RPMI-8226 leukemia): 4.72 µM
GI50 (SK-MEL-5 melanoma): 12.6 µM
TGI (SK-MEL-5 melanoma): 25.4 µM
GI50 (SK-OV-3 ovarian): 15 µM
TGI (SK-OV-3 ovarian): 28.2 µM
GI50 (SN12C renal): 1900 nM
TGI (SN12C renal): 4.03 µM
GI50 (SNB-75 CNS): 11.8 µM
TGI (SNB-75 CNS): 24.4 µM
GI50 (SR leukemia): 1770 nM
TGI (SR leukemia): 9.55 µM
GI50 (UACC-62 melanoma): 1830 nM
TGI (UACC-62 melanoma): 3.62 µM

Cc1nc(N)nc(N)c1CCCc1ccccc1
TGI (IGROV1 ovarian): > 100 µM
TGI (K-562 leukemia): > 100 µM
TGI (OVCAR-8 ovarian): > 100 µM
TGI (RPMI-8226 leukemia): > 100 µM
TGI (SK-MEL-5 melanoma): > 100 µM
TGI (SK-OV-3 ovarian): > 100 µM
TGI (SN12C renal): 51.9 µM
TGI (SNB-75 CNS): > 100 µM
TGI (SR leukemia): > 100 µM
TGI (UACC-62 melanoma): > 100 µM

CCC1(OC(=O)CN)C(=O)OCc2c1cc1n(c2=O)Cc2cc3ccccc3nc2-1 (stereo unspecified)
GI50 (IGROV1 ovarian): 134 nM
TGI (IGROV1 ovarian): 0.726 µM and 2.21 µM
GI50 (K-562 leukemia): 170 nM
TGI (K-562 leukemia): > 100 µM
GI50 (OVCAR-8 ovarian): 40 nM and 22.7 nM
GI50 (RPMI-8226 leukemia): 0.031 µM
TGI (RPMI-8226 leukemia): 0.209 µM
GI50 (SK-MEL-5 melanoma): 0.0187 µM and < 0.0128 µM
TGI (SK-MEL-5 melanoma): 0.107 µM and 0.0329 µM
GI50 (SK-OV-3 ovarian): 0.0224 µM
TGI (SK-OV-3 ovarian): > 54.3 µM
GI50 (SN12C renal): 7.15 nM
TGI (SN12C renal): 0.64 µM
GI50 (SNB-75 CNS): 0.0183 µM
TGI (SNB-75 CNS): 0.246 µM and 0.484 µM
TGI (SR leukemia): < 0.0347 µM
GI50 (UACC-62 melanoma): 7.87 nM
TGI (UACC-62 melanoma): 0.0895 µM and 0.0596 µM

c1ccc(SC23C4C5C6C4C2C6C53)nc1 (stereo unspecified)
TGI (IGROV1 ovarian): > 100 µM
TGI (K-562 leukemia): > 100 µM
TGI (OVCAR-8 ovarian): > 100 µM
TGI (RPMI-8226 leukemia): > 54 µM
TGI (SK-MEL-5 melanoma): > 100 µM
TGI (SK-OV-3 ovarian): > 100 µM
TGI (SN12C renal): > 100 µM
TGI (SNB-75 CNS): > 100 µM
TGI (SR leukemia): > 35 µM
TGI (UACC-62 melanoma): > 100 µM

CC(=O)/C=C/C1=C(c2csc3ccccc23)c2ccccc2CC1
GI50 (IGROV1 ovarian): 15400 nM
TGI (IGROV1 ovarian): > 100 µM
GI50 (K-562 leukemia): 18800 nM
TGI (K-562 leukemia): > 100 µM
GI50 (OVCAR-8 ovarian): 30400 nM
TGI (OVCAR-8 ovarian): > 100 µM
GI50 (RPMI-8226 leukemia): 8.69 µM
TGI (RPMI-8226 leukemia): 47.3 µM
GI50 (SK-MEL-5 melanoma): 13.4 µM
TGI (SK-MEL-5 melanoma): 28.8 µM
GI50 (SK-OV-3 ovarian): 22.4 µM
TGI (SK-OV-3 ovarian): > 100 µM
GI50 (SN12C renal): 32600 nM
TGI (SN12C renal): > 100 µM
GI50 (SNB-75 CNS): 22.4 µM
TGI (SNB-75 CNS): > 100 µM
GI50 (SR leukemia): 16000 nM
TGI (SR leukemia): 64.6 µM
GI50 (UACC-62 melanoma): 12800 nM
TGI (UACC-62 melanoma): 30.5 µM

Cc1ccc2c(c1)C(=O)c1c-2c(OCCCN(C)C)nc2ccccc12
GI50 (IGROV1 ovarian): 1740 nM
TGI (IGROV1 ovarian): 9.94 µM
GI50 (K-562 leukemia): 1110 nM
TGI (K-562 leukemia): 2.98 µM
GI50 (OVCAR-8 ovarian): 2930 nM
TGI (OVCAR-8 ovarian): 17 µM
GI50 (RPMI-8226 leukemia): 2.71 µM
TGI (RPMI-8226 leukemia): 7.93 µM
GI50 (SK-MEL-5 melanoma): 4.14 µM
TGI (SK-MEL-5 melanoma): 16.3 µM
GI50 (SK-OV-3 ovarian): 4.47 µM
TGI (SK-OV-3 ovarian): 17.4 µM
GI50 (SN12C renal): 2670 nM
TGI (SN12C renal): 17.7 µM
GI50 (SNB-75 CNS): 2.22 µM
TGI (SNB-75 CNS): 15.5 µM
GI50 (SR leukemia): 316 nM
TGI (SR leukemia): 1.38 µM
GI50 (UACC-62 melanoma): 2080 nM
TGI (UACC-62 melanoma): 4.34 µM

C[C@H]1CNC(=O)c2cnn3ccc(nc23)N[C@H](C)c2cc(F)ccc2O1
GI50 (IGROV1 ovarian): 292 nM
TGI (IGROV1 ovarian): 1.92 µM
GI50 (K-562 leukemia): 3640 nM
TGI (K-562 leukemia): > 100 µM
GI50 (OVCAR-8 ovarian): 2540 nM
TGI (OVCAR-8 ovarian): > 55.1 µM
GI50 (RPMI-8226 leukemia): 10.3 µM
TGI (RPMI-8226 leukemia): 41.6 µM
GI50 (SK-MEL-5 melanoma): 8.91 µM
TGI (SK-MEL-5 melanoma): 32.3 µM
GI50 (SK-OV-3 ovarian): 0.641 µM
TGI (SK-OV-3 ovarian): 10 µM
GI50 (SN12C renal): 815 nM
TGI (SN12C renal): 12.8 µM
GI50 (SNB-75 CNS): 0.146 µM
TGI (SNB-75 CNS): 1.05 µM
GI50 (SR leukemia): 50 nM
TGI (SR leukemia): 19.2 µM
GI50 (UACC-62 melanoma): 2320 nM
TGI (UACC-62 melanoma): 39 µM
